Experimental data as given in PubChem BioAssay (NCI).
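Step 1: Grow cells in 96-well plates. Step 2: Expose to compound for 48 hours at 5 concentrations. Step 3: Interpolate endpoints linearly; if unreached, use highest concentration. Definition used: TGI = concentration required for complete inhibition of growth.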

Legend:
Assay in all cases: DTP human tumour cell line panel, 48 h
[1] = test system: MCF7 breast
[2] = test system: 786-0 renal
[3] = test system: DU-145 prostate
[4] = test system: MDA-MB-435
[5] = test system: NCI-H522 lung
[6] = test system: IGROV1 ovarian
[7] = test system: SK-MEL-2 melanoma
[8] = test system: HL-60(TB) leukemia
[9] = test system: SN12C renal
[10] = test system: SNB-75 CNS
[11] = test system: SW-620 colon
[12] = test system: OVCAR-4 ovarian
[13] = test system: MALME-3M melanoma
[14] = test system: COLO 205 colon
[15] = test system: OVCAR-3 ovarian
[16] = test system: NCI-H23 lung
[17] = test system: SK-OV-3 ovarian

Row | SMILES | TGI [1] [µM] | TGI [2] [µM] | TGI [3] [µM] | TGI [4] [µM] | TGI [5] [µM] | TGI [6] [µM] | TGI [7] [µM] | TGI [8] [µM] | TGI [9] [µM] | TGI [10] [µM] | TGI [11] [µM] | TGI [12] [µM] | TGI [13] [µM] | TGI [14] [µM] | TGI [15] [µM] | TGI [16] [µM] | TGI [17] [µM]
1 | CCOC(=O)c1nc2cc(C(F)(F)F)ccc2nc1Oc1ccc(C#N)cc1 | > 100 | > 100 | > 100 | > 100 | > 100 | > 100 | > 100 | > 100 | > 100 | > 100 | > 100 | > 100 | > 100 | > 100 | > 100 | – | –
2 | CC(C)CC(NC(=O)C(C)(CI)Cc1ccccc1)C(=O)Nc1ccccc1 (configuration not stated) | > 100 | > 100 | > 100 | > 100 | > 100 | > 100 | > 100 | > 100 | > 100 | > 100 | > 100 | > 100 | > 100 | > 100 | > 100 | > 100 | > 100
3 | N#C/C(=C\c1ccc(F)cc1)c1nc(-c2cc3ccccc3oc2=O)cs1 | > 100 | 37.1 | > 100 | > 100 | 74.4 | 85 | > 100 | > 100 | > 100 | 95.9 | > 100 | > 100 | 52.9 | > 100 | – | – | 67.5
4 | COc1ccc(S(=O)(=O)N2C(=O)CCC2C(=O)NC(N)=O)cc1 (configuration not stated) | > 100 | > 100 | > 100 | > 100 | > 100 | > 100 | > 100 | > 100 | > 100 | 1.55 | > 100 | > 100 | > 100 | > 100 | > 100 | > 100 | > 100
5 | O=C1/C(=C\c2ccc(Cl)cc2)N=C(c2ccccc2)N1n1c(=O)cn[nH]c1=S | 35.4 | 39.7 | 58.3 | 87 | 37.2 | 66.1 | > 100 | 64.6 | – | – | 44.4 | 69 | > 100 | > 100 | 76.2 | 43.6 | > 100
6 | Cc1ccc(CC(Cc2ccccc2C)C(=O)O)c(C(=O)O)c1 (configuration not stated) | > 100 | > 100 | > 100 | > 100 | > 100 | > 100 | > 100 | > 100 | > 100 | > 100 | > 100 | > 100 | > 100 | > 100 | > 100 | > 100 | –
7 | O=C1C2C(C(=O)N1c1ccccc1)C1(c3ccccc3)CCC2(C(=O)c2ccccc2)O1 (configuration not stated) | > 10 | > 10 | > 10 | > 10 | > 10 | > 10 | > 10 | > 10 | > 10 | – | > 10 | > 10 | > 10 | > 10 | > 10 | > 10 | > 10
8 | N#CC12C(=O)N3C(=NC(c4ccco4)NC3c3ccco3)C1(C#N)C(c1ccco1)NC1=C2CCCC1 (configuration not stated) | > 100 | > 100 | > 100 | > 100 | > 100 | > 100 | > 100 | > 100 | > 100 | – | > 100 | > 100 | > 100 | > 100 | – | > 100 | > 100
9 | CC1=NN(c2nc(N)nc(CN3CCOCC3)n2)C(C)(C)C1 | > 100 | 31.2 | > 100 | > 100 | 29.1 | 37.2 | > 100 | 30.1 | > 100 | > 100 | > 100 | 45.7 | – | > 100 | > 100 | > 100 | > 100
10 | CCOCCOCCOCc1nc(C#N)c(N)o1 | > 100 | > 100 | > 100 | > 100 | > 100 | > 100 | > 100 | > 100 | > 100 | > 100 | > 100 | > 100 | – | > 100 | > 100 | > 100 | > 100
11 | CCOc1cc(C2CC(c3ccc(NS(=O)(=O)c4cc([N+](=O)[O-])ccc4C)cc3)=NN2S(=O)(=O)c2cc([N+](=O)[O-])ccc2C)ccc1O (configuration not stated) | > 100 | 98.7 | > 100 | > 100 | > 100 | > 100 | 62 | > 100 | 81.3 | – | > 100 | > 100 | > 100 | > 100 | 71.5 | > 100 | > 100
12 | O=C(Nc1ccccc1)c1cc(S(=O)(=O)Nc2n[nH]c(=O)n2-c2ccccc2)c(S)cc1Cl | > 100 | > 100 | > 100 | > 100 | > 100 | > 100 | > 100 | > 100 | > 100 | > 100 | > 100 | > 100 | > 100 | > 100 | > 100 | – | > 100
13 | CC(/C=C/C(=O)NO)=C\C(C)C(=O)c1ccc(N(C)C)cc1 (configuration not stated) | > 100 | 6.42 | 0.0792 | 0.0467 | < 0.0129 | 0.28 | 0.778 | 2.53 | 0.206 | 0.234 | 29.8 | 16.8 | 0.0239 | 0.0854 | – | 4 | 0.224
14 | CN1C(=O)C2(C)SC1(c1ccccc1)C1C(=O)N(c3ccccc3)C(=O)C12 (configuration not stated) | > 100 | > 100 | > 100 | > 100 | > 100 | > 100 | > 100 | > 100 | > 100 | – | > 100 | > 100 | > 100 | > 100 | > 100 | > 100 | > 100
